This assay relates to Vero. Kind of assay: Compound was evaluated for inhibition of HSV-1 induced plaques in vero cells (African green monkey kidney cells). In kind it is functional, cell-based. The note with it: Chlorocebus sabaeus.

pEC50: −log10 of the molar value.

For `Nc1nc2c(ncn2COCCO)c(=O)[nH]1` [ACYCLOVIR], the pEC50 (commonly the EC50 on a negative log10 scale, so that one unit is a factor of ten) was 5.22.

Values taken from ChEMBL document CHEMBL1133288, “Synthesis and antiviral evaluation of nucleic acid-based (NAB) libraries” (Bioorg Med Chem Lett, 2000).
